{"source": "patent US8778915B2", "about": "“Method for the treatment of central nervous system cancers and compositions related thereto” (Emory University, priority 2010, dated 2014)", "key": {"glioblastoma": {"test_system": "glioblastoma", "settings": "first study; cited from earlier work"}, "PC-12 cells": {"test_system": "PC-12 cells", "assay": "Survival of PC-12 cells treated with cyclodextrin", "format": "cell-based", "settings": "48 h, very high concentration (320 uM)", "protocol": "PC-12 cells were treated with different concentrations of cyclodextrin for 48 h. The values are expressed as mean±SD of duplicate samples. This experiment was done to answer the question if any compound can kill tumor cells at high doses. B-Cyclodextrin is an inert compound and used as a vehicle for Progesterone."}, "[1]": {"test_system": "human neuroblastoma (SK-N-AS) cells", "assay": "MTT cell viability, single 48 h exposure, neuroblastoma cells", "format": "cell-based", "settings": "single exposure 48 hours, at 5 μM and 10 μM, P<0.05 compared to control", "protocol": "Data were evaluated by analysis of variance (ANOVA) followed by Dunnett test for individual comparisons. […] Values were expressed as means±SD of three experiments.\nThe human neuroblastoma cells (SK-N-AS) were cultured in a DMEM medium and E18 rat primary cortical neurons were cultured for 8-10 days in Neurobasal medium. […] An MTT reduction assay was used to estimate cell viability."}, "[2]": {"test_system": "human neuroblastoma (SK-N-AS) cells", "assay": "Cell viability, repeated daily exposure for 3 and 6 days, neuroblastoma cells", "format": "cell-based", "settings": "0.1-160 μM", "protocol": "Analysis of variance (ANOVA) followed by a Dunnett test was used to compare treatment groups to controls. […] Values were expressed as means±SD of three experiments.\nFIG. 3 show the effects of PROG exposure for 3 and 6 days on the viability of Neuroblastoma cells (SK-N-AS). Cells were exposed to different concentrations of PROG (0.1, 1, 5, 10, 20, 80, 160 μM) daily for 3 days and 6 days. The statistical analysis of data was performed with analysis of variance (ANOVA) followed by Dunnett test to compare several treatment group to a single control group. The significance of results was set at P<0.05. Values are expressed as Means±SD of three experiments. Significant difference *P<0.05 when compared to control."}, "[3]": {"test_system": "human neuroblastoma xenograft", "assay": "Mouse xenograft model of human neuroblastoma", "format": "in vivo, female athymic nude mice", "settings": "after 8 days of treatment", "excerpt": "The vehicle group received saline only. Data were normalized to the baseline values (day 1) and expressed as percent change in daily tumor growth. […] The vehicle group received saline only. Values are expressed as mean tumor size for the different animals in each group. The significance of results was set at P<0.05 two-tailed. Values are expressed as % change in Means±SEM of tumor volume in different groups. […] Tumors were allowed to grow to ˜200 to 250 mm^3 and mice were divided into groups. […] This regimen was planned to be continued for up to two weeks to examine maximum tumor burden. All treated animals are being compared to appropriate controls for analysis of rate of daily tumor growth, tumor volume and regression. Toxicity is being assessed daily by survival, activity and body weight."}, "neuroblastoma cells": {"test_system": "neuroblastoma cells", "settings": "10 μM; cited from earlier work"}, "[4]": {"test_system": "U87MG glioblastoma cell line", "assay": "Morphology of glioblastoma cells, phase contrast microscope", "format": "cell-based, human", "settings": "high concentrations (40, 80 and 160 μM)"}, "[5]": {"test_system": "human glioblastoma cell line U87MG", "assay": "Cell viability, repeated exposure, glioblastoma-1 cells", "format": "cell-based", "protocol": "(§1) Cells were exposed to different concentrations of PROG daily for 3 days and 6 days by replacing culture medium containing PROG. The stock solution of PROG was prepared in DMSO (Final concentration: <5 μl/ml medium). Data were analyzed using analysis of variance (ANOVA) followed by Dunnett's test. Values are expressed as Means±SD of two independent experiments with duplicate samples. Significant difference *P<0.05 when compared to control values."}, "[6]": {"test_system": "human glioblastoma cell line U87dEGFR", "assay": "Cell viability, repeated exposure, glioblastoma-2 cells", "format": "cell-based", "protocol": "as §1"}, "breast cancer": {"test_system": "breast cancer", "settings": "single injection of depot progesterone prior to breast cancer therapy, over 1000 women, 65 months after diagnosis and treatment; cited from earlier work"}, "[7]": {"settings": "repeated exposure 3 and 6 days, high doses"}}}
{"compound": "Avastin: Avastin (bevacizumab), FDA approved to treat glioblastoma at progression after standard therapy", "values": [{"measurement": "patients who survived for at least 6 months without disease progressing", "setting": "glioblastoma", "result": 43, "unit": "%"}, {"measurement": "patients who survived for at least one year", "setting": "glioblastoma", "result": 38, "unit": "%"}, {"measurement": "patients with tumor shrinkage", "setting": "glioblastoma", "result": 28, "unit": "%"}]}
{"compound": "OC[C@H]1O[C@@H]2O[C@H]3[C@H](O)[C@@H](O)[C@@H](O[C@H]4[C@H](O)[C@@H](O)[C@@H](O[C@H]5[C@H](O)[C@@H](O)[C@@H](O[C@H]6[C@H](O)[C@@H](O)[C@@H](O[C@H]7[C@H](O)[C@@H](O)[C@@H](O[C@H]8[C@H](O)[C@@H](O)[C@@H](O[C@H]1[C@H](O)[C@H]2O)O[C@@H]8CO)O[C@@H]7CO)O[C@@H]6CO)O[C@@H]5CO)O[C@@H]4CO)O[C@@H]3CO", "note": "[B-Cyclodextrin]", "values": [{"measurement": "cell death", "setting": "PC-12 cells", "result": "could not induce cell death"}]}
{"compound": "CC(=O)[C@H]1CC[C@H]2[C@@H]3CCC4=CC(=O)CC[C@]4(C)[C@H]3CC[C@]12C", "note": "[progesterone, pregn-4-ene-3,20-dione]", "values": [{"measurement": "cell death (MTT cell viability)", "setting": "[1]", "result": "significant cell death"}, {"measurement": "cell death", "setting": "[2]; daily exposure for 3 days", "result": "significant (P<0.05) cell death in a concentration dependant manner"}, {"measurement": "cell death", "setting": "[2]; daily exposure for 6 days, concentration dependant", "result": "cell death (P<0.05) was observed"}, {"measurement": "reduction of rate of tumor growth compared to saline vehicle", "setting": "[3]; 50 mg/kg peritumoral injection once daily", "result": "~50", "unit": "%"}, {"measurement": "reduction of rate of tumor growth compared to saline vehicle", "setting": "[3]; 100 mg/kg peritumoral injection once daily", "result": "~50", "unit": "%"}, {"measurement": "cell viability", "setting": "neuroblastoma cells", "result": "significant decrease in cell viability"}, {"measurement": "changes in cell morphology", "setting": "[4]", "result": "lose their original shape, become detached from the surface, and eventually die"}, {"measurement": "effectiveness of six days versus 3 days of treatment", "setting": "[5]; repeated exposure", "result": "more effective than 3 days"}, {"measurement": "cell viability", "setting": "[5]; [7]", "result": "killed both glioblastoma cell lines in a dose dependant manner"}, {"measurement": "effectiveness of six days versus 3 days of treatment", "setting": "[6]; repeated exposure", "result": "more effective than 3 days"}, {"measurement": "cell viability", "setting": "[6]; [7]", "result": "killed both glioblastoma cell lines in a dose dependant manner"}, {"measurement": "reduction of mortality", "setting": "breast cancer", "result": "more than 35%"}]}
